Experimental findings from patent publication US20070167452A1, “Therapeutic amide derivatives” (PFIZER, INC., priority 2004, published 2007) are described below.

The target of one series is Human HERG (Homo sapiens, UniProt Q12809). Put plainly: Human Dofetilide Binding Assay.
The target in a further series is T1, NR2B receptor (Rattus norvegicus, UniProt P35439+Q00960).
T1 construct: Membranes were prepared by homogenization of forebrain of male CD rats; from tissue; host or cells: forebrain of male CD rats (P2 membrane)
Put plainly: NR2B Binding Assay. The following applies: forebrain P2 membranes of male CD rats; 5 nM [3H] NR2B ligand. How it is done:
The activity of the cycloalkylene amide compounds of the present invention, as NR2B antagonists, is determined by their ability to inhibit the binding of NR2B subunit at its receptor sites employing radioactive ligands.
The NR^2B antagonist activity of the cycloalkylene amide compounds is evaluated by using the standard assay procedure described in, for example, J. Pharmacol., 331, pp 117-126, 1997. This method essentially involves determining the concentration of the individual compound required to reduce the amount of radiolabelled NR2B ligands by 50% at their receptor sites, thereby affording characteristic IC50 values for each compound tested. More specifically, the assay is carried out as follows.
Membranes were prepared by homogenization of forebrain of male CD rats weighing between 170˜190 g by using glass-Teflon homogenizer in 0.32 M sucrose at 4° C. The crude nuclear pellet was removed by centrifugation at 1000×g for 10 min, and the supernatant centrifuged at 17000×g for 25 min. The resulting pellet was resuspended in 5 mM Tris acetate pH 7.4 at 4° C. for 10 min to lyse cellular particles and again centrifuged at 17000×g. The resulting pellet (P2 membrane) was washed twice in Tris acetate, resuspended at 5.5 mg protein/ml and stored at −20° C. until use. All the manipulation was done on ice, and stock solution and equipment were kept on ice at all time.
For the saturation assay, receptor saturation was determined by incubating [^3H]-1-[(1S*,2S*)-2-hydroxy-2-(4-hydroxyphenyl)-1-methylethyl]-4-phenylpiperidin-4-ol and 50 μg protein of P2 membrane for 60 minutes at room temperature in a final 100 μl of incubation buffer (50 mM Tris HCl, pH7.4). Total and non-specific bindings (in the presence of 10 μM of unlabeled 1-[(1S*,2S*)-2-hydroxy-2-(4-hydroxyphenyl)-1-methylethyl]-4-phenylpiperidin-4-ol) were determined in a range of [^3H]-1-[(1S*,2S*)-2-hydroxy-2-(4-hydroxyphenyl)-1-methylethyl]-4-phenylpiperidin-4-ol concentrations (0.625 nM to 60 nM).
For the competition assay, test compounds were incubated in duplicate with 5 nM [^3H]-1-[(1S*,2S*)-2-hydroxy-2-(4-hydroxyphenyl)-1-methylethyl]-4-phenylpiperidin-4-ol and 50 μg protein of P2 membrane for 60 minutes at room temperature in a final 100 μl of 50 mM Tris HCl buffer (pH7.4). Nonspecific binding was determined by 10 μM of unlabeled 1-[(1S*,2S*)-2-hydroxy-2-(4-hydroxyphenyl)-1-methylethyl]-4-phenylpiperidin-4-ol (25 μl). The saturation derived KD gained in saturation assay was used for all Ki calculations.
All incubations were terminated by rapid vacuum filtration over 0.2% polyethyleneimine soaked Whatman GF/B glass fibre filter paper using a SKATRON cell harvester followed by three washes with ice-cold filtration buffer (5 mM Tris HCl, pH 7.4.). Receptor-bound radioactivity was quantified by liquid scintillation counting using Packard LS counter. Competition assays were performed by counting Wallac GF/B filters on Betaplate scintillation counter (Wallac).

Sequence of Human HERG (Q12809 whole entry): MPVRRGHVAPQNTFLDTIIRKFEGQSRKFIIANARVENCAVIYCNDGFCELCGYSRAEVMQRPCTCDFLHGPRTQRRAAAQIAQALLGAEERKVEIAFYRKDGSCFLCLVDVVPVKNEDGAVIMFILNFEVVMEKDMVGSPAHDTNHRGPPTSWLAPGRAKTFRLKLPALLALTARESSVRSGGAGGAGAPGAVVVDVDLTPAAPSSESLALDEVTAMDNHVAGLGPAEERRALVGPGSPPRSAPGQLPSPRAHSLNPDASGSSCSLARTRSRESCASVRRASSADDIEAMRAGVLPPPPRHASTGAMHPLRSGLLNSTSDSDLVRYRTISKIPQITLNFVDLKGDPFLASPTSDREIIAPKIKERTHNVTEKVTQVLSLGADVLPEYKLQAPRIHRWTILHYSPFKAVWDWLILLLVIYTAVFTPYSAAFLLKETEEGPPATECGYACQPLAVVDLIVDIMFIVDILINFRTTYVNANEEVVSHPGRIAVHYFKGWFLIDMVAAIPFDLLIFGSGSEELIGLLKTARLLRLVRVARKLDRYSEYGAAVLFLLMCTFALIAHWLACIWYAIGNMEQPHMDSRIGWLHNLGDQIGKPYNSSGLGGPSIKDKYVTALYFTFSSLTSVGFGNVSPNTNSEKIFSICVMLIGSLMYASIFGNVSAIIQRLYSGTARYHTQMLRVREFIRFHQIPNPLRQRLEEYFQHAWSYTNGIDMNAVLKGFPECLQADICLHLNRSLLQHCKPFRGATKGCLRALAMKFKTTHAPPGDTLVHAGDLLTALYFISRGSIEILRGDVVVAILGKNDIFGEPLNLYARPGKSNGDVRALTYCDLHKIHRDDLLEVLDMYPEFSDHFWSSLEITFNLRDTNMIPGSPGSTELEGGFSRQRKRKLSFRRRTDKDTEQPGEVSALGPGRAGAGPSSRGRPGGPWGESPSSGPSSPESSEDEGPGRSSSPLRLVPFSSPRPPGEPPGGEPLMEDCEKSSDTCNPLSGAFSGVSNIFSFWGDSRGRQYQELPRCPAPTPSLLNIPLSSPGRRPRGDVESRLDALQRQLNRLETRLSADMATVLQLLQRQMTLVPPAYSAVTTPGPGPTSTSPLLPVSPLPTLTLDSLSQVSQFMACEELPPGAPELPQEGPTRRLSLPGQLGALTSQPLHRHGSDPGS
T1 sequence (Q00960 27-1482, other chains not shown): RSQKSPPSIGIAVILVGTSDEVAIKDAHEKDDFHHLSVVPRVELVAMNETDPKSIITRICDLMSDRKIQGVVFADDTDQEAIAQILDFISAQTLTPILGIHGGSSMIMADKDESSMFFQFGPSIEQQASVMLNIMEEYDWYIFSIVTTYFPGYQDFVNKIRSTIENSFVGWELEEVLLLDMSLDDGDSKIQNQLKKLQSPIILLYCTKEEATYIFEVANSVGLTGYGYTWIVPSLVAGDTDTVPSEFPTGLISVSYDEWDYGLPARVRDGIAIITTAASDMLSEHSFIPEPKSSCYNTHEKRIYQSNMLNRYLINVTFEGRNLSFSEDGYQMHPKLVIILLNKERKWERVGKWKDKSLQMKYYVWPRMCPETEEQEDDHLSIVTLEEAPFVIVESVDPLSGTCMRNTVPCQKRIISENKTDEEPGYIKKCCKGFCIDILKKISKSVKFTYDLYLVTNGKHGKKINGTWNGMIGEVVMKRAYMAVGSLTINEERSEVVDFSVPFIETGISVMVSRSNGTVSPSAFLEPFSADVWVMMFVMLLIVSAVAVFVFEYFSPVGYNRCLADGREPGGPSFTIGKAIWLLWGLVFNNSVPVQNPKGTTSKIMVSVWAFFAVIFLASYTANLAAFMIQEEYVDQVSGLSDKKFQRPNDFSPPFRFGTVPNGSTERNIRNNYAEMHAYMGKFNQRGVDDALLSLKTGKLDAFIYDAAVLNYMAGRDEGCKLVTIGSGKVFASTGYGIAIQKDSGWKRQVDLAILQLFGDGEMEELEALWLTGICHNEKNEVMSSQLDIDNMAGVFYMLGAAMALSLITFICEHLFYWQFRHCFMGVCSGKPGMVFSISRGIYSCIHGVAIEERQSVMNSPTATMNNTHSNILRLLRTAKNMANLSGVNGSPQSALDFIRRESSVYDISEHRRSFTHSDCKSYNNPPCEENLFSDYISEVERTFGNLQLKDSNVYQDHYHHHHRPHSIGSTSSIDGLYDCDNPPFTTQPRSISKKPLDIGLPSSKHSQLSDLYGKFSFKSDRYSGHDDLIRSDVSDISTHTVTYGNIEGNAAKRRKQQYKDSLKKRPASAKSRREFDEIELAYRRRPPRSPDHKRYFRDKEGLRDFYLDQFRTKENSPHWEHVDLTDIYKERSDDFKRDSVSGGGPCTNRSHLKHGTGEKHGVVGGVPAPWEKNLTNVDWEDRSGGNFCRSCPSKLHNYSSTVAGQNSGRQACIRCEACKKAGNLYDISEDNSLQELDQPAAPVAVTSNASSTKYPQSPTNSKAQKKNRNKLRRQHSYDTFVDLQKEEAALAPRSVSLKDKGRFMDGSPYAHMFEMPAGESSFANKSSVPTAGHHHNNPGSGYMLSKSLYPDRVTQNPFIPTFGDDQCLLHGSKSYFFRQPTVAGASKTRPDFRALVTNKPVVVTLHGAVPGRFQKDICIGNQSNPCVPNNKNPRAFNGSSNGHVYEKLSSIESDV

A word on the IC50: it is the point on the concentration scale where inhibition reaches its midpoint. A lower IC50 goes with greater potency in that assay. As a reminder, the melting point is the temperature, or range, at which the solid turns liquid. The molecule `O=C(NC[C@]1(O)CC[C@H](COc2cccc(Cl)c2)CC1)c1ccc(O)cc1` [Example 15, N-({trans-4-[(3-Chlorophenoxy)methyl]-1-hydroxycyclohexyl}methyl)-4-hydroxybenzamide] came in with a melting point of 164.9 °C. This molecule also registered a half-inhibitory concentration (IC50) at Human HERG of 20700 nM. Also, the concentration for half-maximal inhibition (IC50) on NR2B receptor stood at 21 nM.

In turn, `O=C(NC[C@]1(O)CC[C@H](COc2ccc(Cl)cc2)CC1)c1ccc(O)cc1` [Example 16, N-({trans-4-[(4-Chlorophenoxy)methyl]-1-hydroxycyclohexyl}methyl)-4-hydroxybenzamide] had a melting point of 208.2 °C. This molecule displayed an IC50 at Human HERG above 100000 nM. This molecule came in with an IC50 at NR2B receptor of 19.8 nM.

For `Cc1ccccc1OC[C@H]1CC[C@@](O)(CNC(=O)c2ccc(O)cc2)CC1` [Example 17, 4-Hydroxy-N-({trans-1-hydroxy-4-[(2-methylphenoxy)methyl]cyclohexyl}methyl)benzamide], the melting point came to 189.1 °C. The molecule further yielded an IC50 on Human HERG above 100000 nM. The molecule also had an IC50 at NR2B receptor of 23.4 nM.

Take `Cc1cccc(OC[C@H]2CC[C@@](O)(CNC(=O)c3ccc(O)cc3)CC2)c1` [Example 18, 4-Hydroxy-N-({trans-1-hydroxy-4-[(3-methylphenoxy)methyl]cyclohexyl}methyl)benzamide]: the melting point was 201.4 °C. The molecule further registered a 50% inhibitory concentration (IC50) at Human HERG above 100000 nM. The molecule also registered a half-inhibitory concentration (IC50) on NR2B receptor of 15.2 nM.

As to `Cc1ccc(OC[C@H]2CC[C@@](O)(CNC(=O)c3ccc(O)cc3)CC2)cc1` [Example 19, 4-Hydroxy-N-({trans-1-hydroxy-4-[(4-methylphenoxy)methyl]cyclohexyl}methyl)benzamide], the melting point is 203.1 °C. This molecule also gave a half-inhibitory concentration (IC50) on Human HERG above 100000 nM. The IC50 at NR2B receptor was determined as 7.7 nM.

In the case of `O=C(NC[C@]1(O)CC[C@H](COCc2ccccc2)CC1)c1ccc(O)cc1` [Example 21, N-({trans-4-[(Benzyloxy)methyl]-1-hydroxycyclohexyl}methyl)-4-hydroxybenzamide], the melting point is 165.7 °C. Further, the concentration for half-maximal inhibition (IC50) at Human HERG is above 100000 nM. Also, the IC50 on NR2B receptor turned out to be 11.4 nM.

On to `O=C(NC[C@]1(O)CC[C@H](COCc2ccccc2F)CC1)c1ccc(O)cc1` [Example 22, N-[(trans-4-{[(2-Fluorobenzyl)oxy]methyl}-1-hydroxycyclohexyl)methyl]-4-hydroxybenzamide], for which the melting point stood at 174.3 °C. The same molecule came in with a concentration for half-maximal inhibition (IC50) at Human HERG above 100000 nM. This molecule also came in with an IC50 at NR2B receptor of 11 nM.

In turn, `O=C(NC[C@]1(O)CC[C@H](COCc2cccc(F)c2)CC1)c1ccc(O)cc1` [Example 23, N-[(trans-4-{[(3-Fluorobenzyl)oxy]methyl}-1-hydroxycyclohexyl)methyl]-4-hydroxybenzamide] gave a melting point of 167.6 °C. Moreover, on Human HERG, the IC50 is above 100000 nM. Also, the 50% inhibitory concentration (IC50) at NR2B receptor is 28.6 nM.

In turn, `O=C(NC[C@]1(O)CC[C@H](COCc2ccc(F)cc2)CC1)c1ccc(O)cc1` [Example 24, N-[(trans-4-{[(4-Fluorobenzyl)oxy]methyl}-1-hydroxycyclohexyl)methyl]-4-hydroxybenzamide] had a melting point of 167.6 °C. Besides, the IC50 at Human HERG was found to be 97000 nM. Moreover, the IC50 on NR2B receptor was 21.8 nM.

Molecule `O=C(NC[C@]1(O)CC[C@@H](Oc2ccc(Cl)cc2)CC1)c1ccc(O)c(F)c1` [Example 34, N-{[cis-4-(4-Chlorophenoxy)-1-hydroxycyclohexyl]methyl}-3-fluoro-4-hydroxybenzamide] returned a melting point of 168.1 °C. On Human HERG, this molecule came in with an IC50 above 30000 nM. The molecule also showed an IC50 on NR2B receptor of 14.7 nM.

In the case of `O=C(NC[C@]1(O)CC[C@H](OCc2ccccc2F)CC1)c1ccc(O)cc1` [Example 48, N-({trans-4-[(2-Fluorobenzyl)oxy]-1-hydroxycyclohexyl}methyl)-4-hydroxybenzamide], the melting point turned out to be 162.9 °C. Also, the IC50 at Human HERG is above 100000 nM. Also, the IC50 at NR2B receptor amounted to 25.5 nM.
